Experimental data reported in PMC4136671 (Journal of Medicinal Chemistry, 2014).
Blank lines part the entries; values can stand above or below the molecule they belong to.

Assays:
T. cruzi CYP51 [1] = target: T1, T. cruzi CYP51 (Trypanosoma cruzi, UniProt Q7Z1V1); assay: CYP51 spectral ligand binding assay; settings: for time course of the amplitude of the type 2 spectral response: T. cruzi CYP51 1.0 μM, 0.2 μM ligand (enzyme in excess)
Chagas disease = settings: acute and chronic forms; cited from earlier work
T. cruzi CYP51 [2] = target: T1, T. cruzi CYP51; assay: CYP51 activity assay; format: biochemical; settings: vs (R)-2; I/E=2, 1 h

T1 sequence (Q7Z1V1 whole entry): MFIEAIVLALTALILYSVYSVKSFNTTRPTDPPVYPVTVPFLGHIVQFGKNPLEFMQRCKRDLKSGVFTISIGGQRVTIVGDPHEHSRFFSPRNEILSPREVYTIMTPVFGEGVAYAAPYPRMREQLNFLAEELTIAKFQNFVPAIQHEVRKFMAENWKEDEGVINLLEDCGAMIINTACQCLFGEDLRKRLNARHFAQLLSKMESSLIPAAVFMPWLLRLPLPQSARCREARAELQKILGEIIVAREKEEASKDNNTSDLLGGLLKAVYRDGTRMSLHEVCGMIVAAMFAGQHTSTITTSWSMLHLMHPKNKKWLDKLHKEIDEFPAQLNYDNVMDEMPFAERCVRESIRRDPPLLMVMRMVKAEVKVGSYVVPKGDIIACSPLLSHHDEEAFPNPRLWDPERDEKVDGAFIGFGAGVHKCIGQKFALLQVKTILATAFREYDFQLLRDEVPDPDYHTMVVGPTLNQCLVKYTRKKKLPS

- time course of the amplitude of the type 2 spectral response (T. cruzi CYP51 [1]): somewhat similar pattern
Compound: CC(=O)N1CCN(c2ccc(OCC3COC(Cn4ccnc4)(c4ccc(Cl)cc4Cl)O3)cc2)CC1 (centres unmarked) [ketoconazole, reference compound]

Compound: O=C(N[C@@H](Cn1ccnc1)c1ccc(Cl)cc1Cl)c1ccc(-c2nnc(-c3ccccc3)o2)cc1 [VNI, (R)-N-(1-(2,4-dichlorophenyl)-2-(1H-imidazol-1-yl)ethyl)-4-(5-phenyl-1,3,4-oxadiazol-2-yl)benzamide]
- cure of Chagas disease in mice (Chagas disease): cure both the acute and chronic forms

- time course of the amplitude of the type 2 spectral response (T. cruzi CYP51 [1]): very slow increase
Compound: O=C(Nc1ccc(N2CCN(c3ccc(Cl)c(Cl)c3)CC2)cc1)OC(Cn1ccnc1)c1ccc(Cl)cc1Cl (centres unmarked) [Compound 6, 1-(2,4-dichlorophenyl)-2-(1H-imidazol-1-yl)ethyl 4-[4-(3,4-dichlorophenyl)piperazin-1-yl]phenylcarbamate]

Compound: CC(C)c1ccc(NC(=O)O[C@H](Cn2ccnc2)c2ccc(Cl)cc2)cc1 [(S)-2, 1-(4-chlorophenyl)-2-(1H-imidazol-1-yl)ethyl-4-isopropylphenylcarbamate]
- inhibitory effect on the substrate conversion, fold stronger than (R)-2 (T. cruzi CYP51 [2]): ~50 fold
- apparent binding efficiency, fold higher than (R)-2 (T. cruzi CYP51 [1]; vs (R)-2): 2 fold
